Literature values, collected in US12285459B2, “Saposin-A derived peptides and uses thereof” (CHILDREN'S MEDICAL CENTER CORPORATION, priority 2011, dated 2025).

Tested on: VEGF
Details: cited from earlier work

In the case of `CN(C)c1ccc(/C=C2\C(=O)Nc3ccccc32)cc1` [SU 4312], the vessel formation is listed as “blocked”.
